From patent publication US12156523B2 (priority 2017, dated 2024) come the findings set out here.

Each structure is given as a SMILES string.

Common to all, as to type: in vivo
One data set deals with rice (cultivar: Jikkoku). The experiment in a line: Barrier to growth of rice (phytotoxicity, Example 18). Particulars: untreated plant length set as 100; 0.2 mg/mL acetone solution diluted 10-fold, 0.25 mL per 1 mL of soil; first leaf stage; comparative compounds (Table 38). Here is the method: The acetone solutions of each example compound and compounds described in the prior art documents shown in the below-mentioned Table 38 (hereinafter, referred to as compounds of Comparative Examples 1 to 5, respectively) were prepared such that the content thereof became 0.2 mg/mL, and then diluted to 10-fold with water to be subjected to conducting test. 0.25 mL of the diluted solution per 1 mL of the soil was made to be absorbed in the soil. Then, rice seeds (cultivar: Jikkoku) subjected to forcing to germination were seeded in the soil to be cultivated in plant cultivation chambers. The plant length of the rice grown to the first leaf stage was measured, and the ratio of the plant length, relative to the untreated plant length set as 100, (hereinafter, referred to as “the ratio of plant length relative to untreated plant length”) was calculated. The presence or absence of the barrier to growth was determined from the calculated ratio.

The test system of data set [1] is Pyricularia oryzae. The experiment in a line: whole plant or invertebrate. Particulars: foliar, read-out: Control value (number of lesions at the second leaf).
The subject of data set [2] is cucumber bacterial spot disease. The data set can be described thus: Activity against cucumber bacterial spot disease (Example 17). Particulars: cucumber cv. Natsusuzumi; wettable powder diluted 6666-fold, 20 mL per pot absorbed in the soil; 28 days after settled planting. As to the method:
Wettable powders of the example compound 1-134 were prepared in accordance with the below-mentioned Preparation Example 1. The wettable powders were diluted to 6666-fold with water, and then 20 mL of the diluted solution per pot was applied to cucumber (cultivar: Natsusuzumi) cultivated to the third leaf stage in pots by making the diluted solution to be absorbed in the soil, and then the cucumber was subjected to settled planting. 28 days after the settled planting, the number of lesions formed at the 11th true leaves to the 20th true leaves were counted. The control value was calculated from the obtained number of lesions in accordance with the below-mentioned mathematical formula. Control value=((the number of lesions at untreated plants −the number of lesions at treated plants)/the number of lesions at untreated plants)×100

Data set [3] has as its system Pyricularia oryzae. The data set can be described thus: whole plant or invertebrate. Particulars: soil, read-out: Control value (number of lesions at the second leaf).
The next data set deals with wheat brown rust. The data set can be described thus: Activity against wheat brown rust (Example 14). Particulars: wettable powder (Preparation Example 1) diluted 1000-fold, sprayed twice at 1 L/m^2, examined approx. 4 weeks after second spraying. Here is the method: Wettable powders of the example compound 1-135 were prepared in accordance with the below-mentioned Preparation Example 1, followed by diluting the wettable powders to 1000-fold with water to prepare spraying liquids. The prepared spraying liquid was sprayed onto wheat twice at the blooming stage and 10 days prior to the blooming stage at a liquid volume of 1 L/m^2. The lesions on the flag leaf were examined in accordance with the below-mentioned indexes approximately 4 weeks after the second spraying application. The severity was calculated based on the indexes, and the control value was calculated from the obtained severity in accordance with the below-mentioned mathematical formula.
0: No lesions were observed.
1: 1 to 3 lesions were observed.
2: 4 to 10 lesions were observed.
3: 11 to 20 lesions were observed.
4: 21 or more lesions were observed, and the area of lesions was less than half of the leaf surface.
5: 21 or more lesions were confirmed, and the area of lesions was half or more of the leaf surface. Control value=((the severity at untreated plants −the severity at treated plants)/the severity at untreated plants)×100

Turning to `O=C(O)c1cc(Cl)nc(Cl)c1` [Comparative Example 1], in the data set with rice (cultivar: Jikkoku), the “Ratio of plant length relative to untreated plant length” value stood at 49.
In the case of `CC(C)Oc1cccc(NC(=O)c2cc(F)nc(F)c2)c1` [Example 1-134], in the data set on Pyricularia oryzae [1], the pest or weed control at 25 ppm was at least 80% and the pest or weed control at 200 ppm is at least 80%. In addition, the “Control value (number of lesions at 11th to 20th true leaves)” value in data set [2] is listed as at least 60. The pest or weed control at 10 µg/mL with Pyricularia oryzae [3] is at least 80%.
In the case of `O=C(OCc1ccc(Cl)nc1)c1cc(F)nc(F)c1` [Example 1-174], in the data set with Pyricularia oryzae [1], the pest or weed control at 25 ppm was at least 80% and the pest or weed control at 200 ppm was at least 80%. In the data set on Pyricularia oryzae [3], the pest or weed control at 10 µg/mL is at least 80%.
As to `COc1cccc(NC(=O)c2cc(F)nc(F)c2F)c1` [Example 1-44], the pest or weed control at 25 ppm with Pyricularia oryzae [1] was at least 80%. Also, in the data set on Pyricularia oryzae [3], the pest or weed control at 10 µg/mL was at least 80%.
With `CC(=O)c1cccc(NC(=O)c2cc(F)nc(F)c2)c1` [Example 1-190], the pest or weed control at 200 ppm with Pyricularia oryzae [1] was at least 80%. The pest or weed control at 10 µg/mL with Pyricularia oryzae [3] is at least 80%.
With `Cc1ccc(NC(=O)c2cc(F)nc(F)c2)cc1Cl` [Example 1-133], the pest or weed control at 200 ppm in the data set on Pyricularia oryzae [1] was at least 80%. Moreover, in the data set with Pyricularia oryzae [3], the pest or weed control at 10 µg/mL is at least 80%.
Take `O=C(Nc1cccc(Cl)c1)c1cc(F)nc(F)c1F` [Example 1-32]: in the data set with Pyricularia oryzae [1], the pest or weed control at 200 ppm was at least 80%. In the data set on Pyricularia oryzae [3], the pest or weed control at 10 µg/mL was at least 80%.
For the compound `O=C(OCc1ccccc1)c1cc(F)nc(F)c1` [Example 1-183], the pest or weed control at 200 ppm with Pyricularia oryzae [1] is at least 80%. In the data set on Pyricularia oryzae [3], the pest or weed control at 10 µg/mL was at least 80%.
As for `CCc1ccccc1NC(=O)c1cc(F)nc(F)c1` [Example 1-169], the pest or weed control at 200 ppm in the data set with Pyricularia oryzae [1] is at least 80%. In the data set on Pyricularia oryzae [3], the pest or weed control at 10 µg/mL is at least 80%.
As for `Cc1ccc(NC(=O)c2cc(F)nc(F)c2F)cc1Cl` [Example 1-30], the pest or weed control at 25 ppm in the data set with Pyricularia oryzae [1] was at least 80%. For the same compound, the pest or weed control at 10 µg/mL in the data set on Pyricularia oryzae [3] is at least 80%.
For the compound `O=C(Nc1cccc([N+](=O)[O-])c1)c1cc(F)nc(F)c1` [Example 1-175], in the data set with Pyricularia oryzae [1], the pest or weed control at 200 ppm was at least 80%. In the data set with Pyricularia oryzae [3], the pest or weed control at 10 µg/mL is at least 80%.
With `O=C(NCCc1ccccc1)c1cc(Cl)nc(Cl)c1` [Comparative Example 3], the “Ratio of plant length relative to untreated plant length” value in the data set with rice (cultivar: Jikkoku) came to 45.
The same measure, in the same setting: the figure for `C#CCOC(=O)c1cc(Cl)nc(Cl)c1` [Comparative Example 2] is 52.
As for `CC(C)Oc1ccc(NC(=O)c2cc(F)nc(F)c2)cc1` [Example 1-137], the pest or weed control at 200 ppm with Pyricularia oryzae [1] is at least 80%. Also, the pest or weed control at 10 µg/mL in the data set on Pyricularia oryzae [3] was at least 80%.
With `O=C(Nc1ccc([N+](=O)[O-])cc1)c1cc(F)nc(F)c1` [Example 1-176], the pest or weed control at 200 ppm with Pyricularia oryzae [1] is at least 80%. Besides, in the data set on Pyricularia oryzae [3], the pest or weed control at 10 µg/mL is at least 80%.
As to `O=C(Nc1ccccc1[N+](=O)[O-])c1cc(F)nc(F)c1` [Example 1-173], in the data set with Pyricularia oryzae [1], the pest or weed control at 200 ppm is at least 80%. Also, in the data set with Pyricularia oryzae [3], the pest or weed control at 10 µg/mL is at least 80%.
As to `CC(C)c1cccc(NC(=O)c2cc(F)nc(F)c2)c1` [Example 1-178], the pest or weed control at 200 ppm in the data set on Pyricularia oryzae [1] was at least 80%. For the same compound, in the data set with Pyricularia oryzae [3], the pest or weed control at 10 µg/mL was at least 80%.
As to `O=C(Nc1cccc(O)c1)c1cc(F)nc(F)c1` [Example 1-193], the pest or weed control at 200 ppm in the data set with Pyricularia oryzae [1] was at least 80%. Moreover, in the data set on Pyricularia oryzae [3], the pest or weed control at 10 µg/mL was at least 80%.
With `O=C(Nc1ccccc1)c1cc(F)nc(F)c1F` [Example 1-98], the pest or weed control at 200 ppm in the data set on Pyricularia oryzae [1] was at least 80%. Further, the pest or weed control at 10 µg/mL in the data set on Pyricularia oryzae [3] is at least 80%.
For the compound `CCc1cccc(NC(=O)c2cc(F)nc(F)c2)c1` [Example 1-168], in the data set on Pyricularia oryzae [1], the pest or weed control at 25 ppm is at least 80% and the pest or weed control at 200 ppm was at least 80%. Also, in the data set with Pyricularia oryzae [3], the pest or weed control at 10 µg/mL is at least 80%.
For the compound `O=C(OCc1ccc(Cl)nc1)c1cc(Cl)nc(Cl)c1` [Comparative Example 5], the “Ratio of plant length relative to untreated plant length” value in the data set with rice (cultivar: Jikkoku) is recorded as 66.
For the compound `Fc1cc(C2=NCCO2)cc(F)n1` [Example 4-4], the pest or weed control at 200 ppm in the data set with Pyricularia oryzae [1] is at least 80%. For the same compound, in the data set on Pyricularia oryzae [3], the pest or weed control at 10 µg/mL was at least 80%.
Take `O=C(COC(=O)c1cc(Cl)nc(Cl)c1)c1ccccc1` [Comparative Example 4]: the “Ratio of plant length relative to untreated plant length” value with rice (cultivar: Jikkoku) is reported as 64.
`O=C(NC(=O)c1cc(F)nc(F)c1F)c1ccccc1` [Example 1-93]: the pest or weed control at 200 ppm in the data set with Pyricularia oryzae [1] was at least 80%. In the data set with Pyricularia oryzae [3], the pest or weed control at 10 µg/mL is at least 80%.
On to `N#Cc1ccc(OC(=O)c2cc(F)nc(F)c2)cc1` [Example 1-204], for which the pest or weed control at 200 ppm with Pyricularia oryzae [1] was at least 80%. The pest or weed control at 10 µg/mL in the data set on Pyricularia oryzae [3] was at least 80%.
`CCCCc1ccc(NC(=O)c2cc(F)nc(F)c2)cc1` [Example 1-180]: the pest or weed control at 200 ppm in the data set on Pyricularia oryzae [1] is at least 80%. For the same compound, the pest or weed control at 10 µg/mL with Pyricularia oryzae [3] was at least 80%.
Take `O=C(OCc1cccc(Cl)c1)c1cc(F)nc(F)c1F` [Example 1-105]: in the data set with Pyricularia oryzae [1], the pest or weed control at 200 ppm is at least 80%. Also, the pest or weed control at 10 µg/mL in the data set with Pyricularia oryzae [3] is at least 80%.
As for `COc1cccc(NC(=O)c2cc(F)nc(F)c2)c1` [Example 1-135], in the data set with Pyricularia oryzae [1], the pest or weed control at 25 ppm was at least 80% and the pest or weed control at 200 ppm is at least 80%. The “Control value (severity on the flag leaf)” value in the data set on wheat brown rust is given as at least 50. The pest or weed control at 10 µg/mL with Pyricularia oryzae [3] is at least 80%.
